Measured values reported in patent US20170318812A1, “Plant and Crop Growth Regulating/Biostimulant Formulations and Methods of Use” (Arysta Lifescience North America, LLC, priority 2014, published 2017).
“And” between values parts separate entries of the source, which are not always exact repeats. Identical values can stand only once.

Test system: TRZAX Triticum aestivum (Soft wheat)
Assay: Ipfencarbazone biostimulant effect, early post emergence foliar application, greenhouse pots, plant height: wheat
Assay type: in vivo
Conditions: for HEIGHT, percent of untreated check (APoC) / HEIGHT, treatment mean: TRZAX BRS327
Source text: The original objective of this Example was to evaluate the herbicidal effect of ipfencarbazone when applied as a post emergent treatment to a range of selected crops and weeds. Unexpectedly, crop plant growth stimulation was observed. The actual species of weeds and crops are listed in the summary data tabulated below and in FIGS. 1-13. By convention each plant species has a Bayer code (5-letter name) with the scientific name for the plant referenced in FIGS. 1-13. In each Figure, each tray contains the same configuration of weeds and/or crops. In each Figure there is one replication of each treatment (six treatments in total). The top three photographs in each Figure show the Bayer Codes and bottom three photographs are aligned with the top three facilitating viewing of the same plant species. Throughout the Examples various abbreviations as conventional shorthand notation and will be appreciated by those skilled in the art. Some exemplary abbreviations include, “CV”=Co-efficient of Variation,” “LSD”=Least Significant Difference” (G/L (gram per L) AND GA/L (gram of active ingredient per L); “SC”=suspension concentrate formulation. The diluent in all treatments was water. By convention factors that are identical in all treatments (e.g. diluent and surfactant) are not listed in each treatment.
Methods: The indicated size pots (see Tables below) are filled with a specific soil, the soil properties being indicated below. The referenced crops and weeds are planted by hand in each pot. […] The experiments include six treatments each replicated three times on each crop/weed species. At a specific time after emergence each crop and weed species was treated with ipfencarbazone plus a non-ionic surfactant (NIS). In the present Example, the surfactant employed was ENERGIC™ (non-ionic surfactant). The application timing is indicated in each of the Tables (1 or 2 leaf stage) below. Ipfencarbazone plus surfactant was diluted in water and applied at a rate equivalent to about 250 L/ha. Ipfencarbazone was applied using a track sprayer. After treatment, the pots were randomized in a greenhouse. At each assessment (indicated by “days after treatment” or DAT) the height of each plant was measured. The letters next to each mean indicate the level of statistical significance.
Replications: 3, Untreated treatments: 1, Design: Randomized Complete Block (RCB), Treatment units: Treated ‘Plot’ experimental unit size, Dry Form. Unit: %, Treated ‘Plot’ experimental unit size Width: 1 meter, Treated ‘Plot’ experimental unit size Length: 1.4 meters, Application volume: 250 L/ha, Mix size: 0.15 liters, […]

[1] = Soft wheat BRS327, 15 DA-A, 62.5 g ai/ha + Energic NIS 0.2 % v/v
[2] = Soft wheat BRS327, 15 DA-A, 250 g ai/ha + Energic NIS 0.2 % v/v
[3] = Soft wheat BRS327, 15 DA-A, 1000 g ai/ha + Energic NIS 0.2 % v/v
[4] = Soft wheat BRS327, 28 DA-A, 62.5 g ai/ha + Energic NIS 0.2 % v/v
[5] = Soft wheat BRS327, 28 DA-A, 125 g ai/ha + Energic NIS 0.2 % v/v
[6] = Soft wheat BRS327, 28 DA-A, 250 g ai/ha + Energic NIS 0.2 % v/v
[7] = Soft wheat Iguaçú, 15 DA-A, 62.5 g ai/ha + Energic NIS 0.2 % v/v
[8] = Soft wheat Iguaçú, 15 DA-A, 250 g ai/ha + Energic NIS 0.2 % v/v
[9] = Soft wheat Iguaçú, 15 DA-A, 500 g ai/ha + Energic NIS 0.2 % v/v
[10] = Soft wheat Iguaçú, 15 DA-A, 1000 g ai/ha + Energic NIS 0.2 % v/v
[11] = Soft wheat Iguaçú, 28 DA-A, 62.5 g ai/ha + Energic NIS 0.2 % v/v
[12] = Soft wheat Iguaçú, 28 DA-A, 125 g ai/ha + Energic NIS 0.2 % v/v
[13] = Soft wheat Iguaçú, 28 DA-A, 250 g ai/ha + Energic NIS 0.2 % v/v
[14] = Soft wheat Iguaçú, 28 DA-A, 500 g ai/ha + Energic NIS 0.2 % v/v
[15] = Soft wheat Itaipú, 15 DA-A, 125 g ai/ha + Energic NIS 0.2 % v/v
[16] = Soft wheat Itaipú, 15 DA-A, 250 g ai/ha + Energic NIS 0.2 % v/v
[17] = Soft wheat Itaipú, 15 DA-A, 1000 g ai/ha + Energic NIS 0.2 % v/v
[18] = Soft wheat Itaipú, 28 DA-A, 125 g ai/ha + Energic NIS 0.2 % v/v
[19] = Soft wheat Itaipú, 28 DA-A, 250 g ai/ha + Energic NIS 0.2 % v/v

CC(C)N(C(=O)n1cnn(-c2ccc(Cl)cc2Cl)c1=O)c1ccc(F)cc1F [ARY-0572-001, ipfencarbazone]
Plant HEIGHT, Mean [1]: 27.2 cm
Plant HEIGHT, single plots [1]: 25.0 cm and 30.8 cm and 25.7 cm
Plant HEIGHT, Mean (Soft wheat BRS327, 15 DA-A, 125 g ai/ha + Energic NIS 0.2 % v/v): 27.6 cm
Plant HEIGHT, Mean [2]: 32.0 cm
Plant HEIGHT, single plots [2]: 31.0 cm and 32.3 cm and 32.7 cm
Plant HEIGHT, Mean (Soft wheat BRS327, 15 DA-A, 500 g ai/ha + Energic NIS 0.2 % v/v): 24.4 cm
Plant HEIGHT, Mean [3]: 17.3 cm
Plant HEIGHT, single plots [3]: 23.3 cm and 11.7 cm and 17.0 cm
Plant HEIGHT, Mean [4]: 33.0 cm
Plant HEIGHT, single plots [4]: 27.7 cm and 43.3 cm and 28.0 cm
Plant HEIGHT, Mean [5]: 35.0 cm
Plant HEIGHT, single plots [5]: 49.0 cm and 24.7 cm and 31.3 cm
Plant HEIGHT, Mean [6]: 45.6 cm
Plant HEIGHT, single plots [6]: 45.7 cm and 46.0 cm and 45.0 cm
Plant HEIGHT, Mean (Soft wheat BRS327, 28 DA-A, 500 g ai/ha + Energic NIS 0.2 % v/v): 31.6 cm
Plant HEIGHT, Mean (Soft wheat BRS327, 28 DA-A, 1000 g ai/ha + Energic NIS 0.2 % v/v): 28.2 cm
Plant HEIGHT, Mean [7]: 24.6 cm
Plant HEIGHT, single plots [7]: 20.2 cm and 28.0 cm and 25.7 cm
Plant HEIGHT, Mean (Soft wheat Iguaçú, 15 DA-A, 125 g ai/ha + Energic NIS 0.2 % v/v): 26.1 cm
Plant HEIGHT, Mean [8]: 29.9 cm
Plant HEIGHT, single plots [8]: 28.3 cm and 30.7 cm and 30.8 cm
Plant HEIGHT, Mean [9]: 23.8 cm
Plant HEIGHT, single plots [9]: 30.3 cm and 18.7 cm and 22.3 cm
Plant HEIGHT, Mean [10]: 16.3 cm
Plant HEIGHT, single plots [10]: 22.3 cm and 14.0 cm and 12.7 cm
Plant HEIGHT, Mean [11]: 29.2 cm
Plant HEIGHT, single plots [11]: 24.0 cm and 36.3 cm and 27.3 cm
Plant HEIGHT, Mean [12]: 30.1 cm
Plant HEIGHT, single plots [12]: 39.7 cm and 20.7 cm and 30.0 cm
Plant HEIGHT, Mean [13]: 43.3 cm
Plant HEIGHT, single plots [13]: 39.7 cm and 50.3 cm and 40.0 cm
Plant HEIGHT, Mean [14]: 36.8 cm
Plant HEIGHT, single plots [14]: 47.0 cm and 27.7 cm and 35.7 cm
Plant HEIGHT, Mean (Soft wheat Iguaçú, 28 DA-A, 1000 g ai/ha + Energic NIS 0.2 % v/v): 18.7 cm
Plant HEIGHT, Mean (Soft wheat Itaipú, 15 DA-A, 62.5 g ai/ha + Energic NIS 0.2 % v/v): 23.8 cm
Plant HEIGHT, Mean [15]: 25.5 cm
Plant HEIGHT, single plots [15]: 33.3 cm and 19.8 cm and 23.3 cm
Plant HEIGHT, Mean [16]: 31.4 cm
Plant HEIGHT, single plots [16]: 30.7 cm and 31.3 cm and 32.3 cm
Plant HEIGHT, Mean (Soft wheat Itaipú, 15 DA-A, 500 g ai/ha + Energic NIS 0.2 % v/v): 22.2 cm
Plant HEIGHT, Mean [17]: 15.7 cm
Plant HEIGHT, single plots [17]: 22.0 cm and 13.0 cm and 12.0 cm
Plant HEIGHT, Mean (Soft wheat Itaipú, 28 DA-A, 62.5 g ai/ha + Energic NIS 0.2 % v/v): 37.1 cm
Plant HEIGHT, Mean [18]: 32.3 cm
Plant HEIGHT, single plots [18]: 45.0 cm and 23.3 cm and 28.7 cm
Plant HEIGHT, Mean [19]: 47.8 cm
Plant HEIGHT, single plots [19]: 45.0 cm and 46.7 cm and 51.7 cm
Plant HEIGHT, Mean (Soft wheat Itaipú, 28 DA-A, 500 g ai/ha + Energic NIS 0.2 % v/v): 24.0 cm
Plant HEIGHT, Mean (Soft wheat Itaipú, 28 DA-A, 1000 g ai/ha + Energic NIS 0.2 % v/v): 18.4 cm
HEIGHT, percent of untreated check (APoC) (62.5 g ai/ha, 15 DA-A): (145.5%)
HEIGHT, treatment mean (62.5 g ai/ha, 15 DA-A): 27.2a cm
HEIGHT, percent of untreated check (APoC) (62.5 g ai/ha, 28 DA-A): (147.8%)
HEIGHT, treatment mean (62.5 g ai/ha, 28 DA-A): 33.0 a cm
HEIGHT, percent of untreated check (APoC) (125 g ai/ha, 15 DA-A): (147.6%)
